Test results from paper PMC6433232, “Targeting mitochondria in cancer therapy could provide a basis for the selective anti-cancer activity” (PLoS ONE, 2019).

Test system: human primary hepatocytes
Assay: cells
Settings: Hepatocyte, read-out: EC50, μM Hepatocytes
Description: We selected hepatocytes as normal cells because hepatocytes are mediate toxicity to multiple drugs and are used as a standard to assess toxicity of drugs in vitro [28]. […] For comparison with the standard of care, doxorubicin was also included in this analysis.

Structure (SMILES)	EC50
O=C1C(Cl)=C(NNC(=O)C(F)(F)F)C(=O)c2ccccc21 [compound 35]	11.5 µM
CCC(=O)NC1=C(Cl)C(=O)c2ccccc2C1=O [compound 30]	3.6 µM
CCCCNC1=C(Cl)C(=O)c2ccccc2C1=O [compound 5]	> 90 µM
CCCCNC1=CC(=O)c2ccccc2C1=O [compound 51]	> 90 µM
CCCCCNC1=C(Cl)C(=O)c2ccccc2C1=O [compound 6]	> 90 µM
CC(C)NC1=C(Cl)C(=O)c2ccccc2C1=O [compound 10]	> 90 µM
Cc1ccc(NC2=C(Cl)C(=O)c3ccccc3C2=O)cc1 [compound 41]	8.4 µM
O=C1C(Cl)=C(Nc2ccc(Cl)cc2)C(=O)c2ccccc21 [compound 43]	> 90 µM
CC(=O)NC1=C(Cl)C(=O)c2ccccc2C1=O [compound 29]	9.7 µM
O=C(O)CNC1=C(Cl)C(=O)c2ccccc2C1=O [compound 34]	11.8 µM
CCOCCNC1=C(Cl)C(=O)c2ccccc2C1=O [compound 24]	67.8 µM
CCN(CC)C1=CC(=O)c2ccccc2C1=O [compound 59]	90 µM
CC(C)CNC1=CC(=O)c2ccccc2C1=O [compound 52]	> 90 µM
O=C1C(Cl)=C(Nc2ccc(F)cc2)C(=O)c2ccccc21 [compound 42]	10 µM
O=C1C=C(NCCNCCO)C(=O)c2ccccc21 [compound 57]	83.2 µM
O=C1C(Cl)=C(Nc2ccc(O)cc2)C(=O)c2ccccc21 [compound 45]	2.6 µM
CCCCCCCCNC1=C(Cl)C(=O)c2ccccc2C1=O [compound 9]	> 90 µM
CCNC1=CC(=O)c2ccccc2C1=O [compound 49]	> 90 µM
O=C1C(Cl)=C(Nc2cccc(Cl)c2)C(=O)c2ccccc21 [compound 44]	5.3 µM
CNC1=C(Cl)C(=O)c2ccccc2C1=O [compound 2]	41.1 µM
COc1cccc2c1C(=O)c1c(O)c3c(c(O)c1C2=O)C[C@@](O)(C(=O)CO)C[C@@H]3O[C@H]1C[C@H](N)[C@H](O)[C@H](C)O1 [Doxorubicin, reference compound]	10 µM
CC(C)OCCCNC1=C(Cl)C(=O)c2ccccc2C1=O [compound 25]	60.8 µM
O=C1C=CC(=O)c2ccccc21 [compound 56, 1,4-NQ, reference compound]	1.8 µM
CC(C)CNC1=C(Cl)C(=O)c2ccccc2C1=O [compound 12]	> 90 µM
[N-]=[N+]=NC1=C(Cl)C(=O)c2ccccc2C1=O [compound 46]	2.9 µM
CC1CCCC(C)N1C1=C(Cl)C(=O)c2ccccc2C1=O (stereo not shown) [compound 47]	9 µM
O=C1C=C(N2CCCCC2)C(=O)c2ccccc21 [compound 58]	90 µM
CCCNC1=C(Cl)C(=O)c2ccccc2C1=O [compound 4]	90 µM
CCCCCCNC1=C(Cl)C(=O)c2ccccc2C1=O [compound 7]	> 90 µM

Test system: pancreatic cancer MIA PaCa-2 cells
Assay: cells
Settings: Homo sapiens, MIA PaCa-2, read-out: EC50, μM MIA PaCa-2
Protocol: (§1) Fig 1 A, Structure of NSC130362. B, Dose response curve of NSC130362 in MIA PaCa-2 cells. Cells were pre-incubated with NSC130362 for 2 h followed by addition of ATO (5 μM) and incubation for an additional 24 h. At the end of the treatment, the ratio of dead cells was determined by a CellTiterGlo reagent.

Structure (SMILES)	EC50
O=C1C(Cl)=C(NNC(=O)C(F)(F)F)C(=O)c2ccccc21 [compound 35]	8 µM
CCC(=O)NC1=C(Cl)C(=O)c2ccccc2C1=O [compound 30]	5.7 µM
CCCCNC1=C(Cl)C(=O)c2ccccc2C1=O [compound 5]	> 90 µM
CCCCNC1=CC(=O)c2ccccc2C1=O [compound 51]	> 90 µM
CCCCCNC1=C(Cl)C(=O)c2ccccc2C1=O [compound 6]	> 90 µM
CC(C)NC1=C(Cl)C(=O)c2ccccc2C1=O [compound 10]	69 µM
Cc1ccc(NC2=C(Cl)C(=O)c3ccccc3C2=O)cc1 [compound 41]	2.5 µM
O=C1C(Cl)=C(Nc2ccc(Cl)cc2)C(=O)c2ccccc21 [compound 43]	> 90 µM
CC(=O)NC1=C(Cl)C(=O)c2ccccc2C1=O [compound 29]	5.4 µM
O=C(O)CNC1=C(Cl)C(=O)c2ccccc2C1=O [compound 34]	18.1 µM
CCOCCNC1=C(Cl)C(=O)c2ccccc2C1=O [compound 24]	55.4 µM
CCN(CC)C1=CC(=O)c2ccccc2C1=O [compound 59]	90 µM
CC(C)CNC1=CC(=O)c2ccccc2C1=O [compound 52]	> 90 µM
O=C1C(Cl)=C(Nc2ccc(F)cc2)C(=O)c2ccccc21 [compound 42]	3.2 µM
O=C1C=C(NCCNCCO)C(=O)c2ccccc21 [compound 57]	> 90 µM
O=C1C(Cl)=C(Nc2ccc(O)cc2)C(=O)c2ccccc21 [compound 45]	2.5 µM
CCCCCCCCNC1=C(Cl)C(=O)c2ccccc2C1=O [compound 9]	> 90 µM
CCNC1=CC(=O)c2ccccc2C1=O [compound 49]	> 90 µM
O=C1C(Cl)=C(Nc2cccc(Cl)c2)C(=O)c2ccccc21 [compound 44]	7 µM
CNC1=C(Cl)C(=O)c2ccccc2C1=O [compound 2]	38.6 µM
COc1cccc2c1C(=O)c1c(O)c3c(c(O)c1C2=O)C[C@@](O)(C(=O)CO)C[C@@H]3O[C@H]1C[C@H](N)[C@H](O)[C@H](C)O1 [Doxorubicin, reference compound]	0.7 µM
CC(C)OCCCNC1=C(Cl)C(=O)c2ccccc2C1=O [compound 25]	82.1 µM
O=C1C=CC(=O)c2ccccc21 [compound 56, 1,4-NQ, reference compound]	9.2 µM
CC(C)CNC1=C(Cl)C(=O)c2ccccc2C1=O [compound 12]	> 90 µM
[N-]=[N+]=NC1=C(Cl)C(=O)c2ccccc2C1=O [compound 46]	5.2 µM
CC1CCCC(C)N1C1=C(Cl)C(=O)c2ccccc2C1=O (stereo not shown) [compound 47]	7 µM
O=C1C=C(N2CCCCC2)C(=O)c2ccccc21 [compound 58]	52 µM
CCCNC1=C(Cl)C(=O)c2ccccc2C1=O [compound 4]	90 µM
CCCCCCNC1=C(Cl)C(=O)c2ccccc2C1=O [compound 7]	26.1 µM

Same assay, conditions: human

Structure (SMILES)	selective cytotoxicity index, times less
COc1cccc2c1C(=O)c1c(O)c3c(c(O)c1C2=O)C[C@@](O)(C(=O)CO)C[C@@H]3O[C@H]1C[C@H](N)[C@H](O)[C@H](C)O1 [Doxorubicin, reference compound]	approximately 25 times

Same assay, conditions: versus compound 3

Structure (SMILES)	reduction of anti-cancer activity
CCCNC1=C(Cl)C(=O)c2ccccc2C1=O [compound 4]	more than 3 fold

Test system: not listed separately
Assay: in vitro
Settings: human
Protocol: as §1

Structure (SMILES)	selectivity ratio
COc1cccc2c1C(=O)c1c(O)c3c(c(O)c1C2=O)C[C@@](O)(C(=O)CO)C[C@@H]3O[C@H]1C[C@H](N)[C@H](O)[C@H](C)O1 [Doxorubicin, reference compound]	3.5
